Hygroscopicity data for two compounds are collected here from patent US20080027027A1, “Lactosucrose High Content Saccharide, Its Preparation and Uses” (priority 2004, published 2008).

Read-outs that look alike come from different tables or passages of the source.

A short description of data set [1]: Hygroscopicity of solid lactosucrose products under high temperature and humidity. Format: physicochemical. From the text:
While, it has been known that a powdery saccharide, comprising lactosucrose with a lowered hygroscopicity and relatively high stability, can be obtained by elevating the purity of lactosucrose (see Japanese Patent Kokai No. 281,795/92).
To solve the above objects, the present inventors studied on a process for producing lactosucrose, using β-fructofuranosidase, from the viewpoints of the origin of β-fructofuranosidase and reaction condition as well as the combination with sucrose-unassimilable yeast. It has been thought that the lactosucrose content in the reaction mixture reaches maximum about 65%, on a saccharide composition basis, even in the case of using β-fructofuranosidase and invertase-deficient yeast.
According to conventional methods, lactosucrose high content fraction, obtained by the method in Example 4, was filtrated, deionized using ion-exchange resin, decolored using activated charcoal, and concentrated under a reduced pressure to give a moisture content of about 25% (w/w). The resulting concentrate was placed in a crystallizer, admixed with 1% (w/w) of seed crystal and gradually cooled to about 30° C. in 24 hours. The resulting massecuite was centrifuged and crystalline lactosucrose pentahydrate was obtained in a yield of about 40%. […]

For data set [2] the following is noted: crystal obtained from 90% (v/v) ethanol solution, Avigad 1957; cited from earlier work.

For the compound `OC[C@H]1O[C@@H](O[C@H]2[C@H](O)[C@@H](O)[C@@H](O[C@]3(CO)O[C@H](CO)[C@@H](O)[C@@H]3O)O[C@@H]2CO)[C@H](O)[C@@H](O)[C@H]1O` [crystalline lactosucrose, β-D-galactosyl-(1,4)-α-D-glucosyl-(1,2)-β-D-fructoside], the hygroscopicity entry in data set [1] (27° C. and a relative humidity of 75%) is recorded as “low hygroscopicity”; in data set [1] (condition of high-temperature and humidity in summer) it was “no substantial hygroscopicity”. For the compound `O.O.O.O.O.OCC1OC(OC2C(CO)OC(OC3(CO)OC(CO)C(O)C3O)C(O)C2O)C(O)C(O)C1O` (stereo not drawn) [crystalline lactosucrose pentahydrate], in data set [2], the hygroscopicity result was “strong hygroscopicity”.
